# Source: patent EP0305843A2, “Antiviral agent” (BAYER AG, priority 1987, dated 1989)
# Experiments:
# Visna-Virus = experiment: Visna virus test in cell culture (inhibition of virus-induced cytopathic effect, method of Narayan et al.); assay type: cell-based; conditions: Visna-virus-infected cell cultures treated with the compound at non-cytotoxic concentrations
# From the text: In Zellkulturen, die mit Visna-Virus infiziert sind, treten 5 bis 10 Tage nach der Infektion ausgeprägte virusinduzierte, zytopathische Effekte auf. Durch Behandlung der infizierten Zellkulturen mit 9-(2,3-Anhydro-β-D-lyxofuranosyl)adenin konnte das Auftreten dieser zytopathischen Effekte verhindert werden. Der Visna-Virus-Test wurde nach der Methode von O. Narayan et al., Journal of Infectious Dieseases 135, 5, 1977, 800-806 durchgeführt. Dazu wurde 9-(2,3-Anhydro-β-D-lyxofuranosyl)adenin - in Produktionsmedium gelöst - in nicht zytotoxischen Konzentrationen in 96er Microtiterplatten verdünnt. Anschließend wurden Fibroblastenzellen vom Schaf (5 x 10⁴ Zellen pro Napf) - in Produktionsmedium suspendiert - zu jedem Näpfchen zugeführt. Jedes Näpfchen erhielt dann 50 µl einer Visna-Viruslösung mit einer Titer von ca. 2,5 x 10⁴ TCID₅₀ (TCID = tissue culture infectious dose). Diese Virusdosis entspricht einer MOI (Multiplizität der Infektion) von ca. 0,05.
# Unter diesen Infektionsbedingungen resultierte zwischen Tag 5 und Tag 10 in einer Infektionskontrolle ohne Substanz ein virusinduzierter, zytopathischer Effekt. Die infizierten und behandelten Zellen und die Kontrollzellen wurden 7 Tage bei 37°C, 5 % CO₂ inkubiert. […]
# T-Zellen = experiment: Further studies: influence on the function of T cells; assay type: cell-based; conditions: no method or concentration given
smiles,measurement,setting,value
"Nc1ncnc2c1ncn2[C@@H]1O[C@H](CO)[C@@H]2O[C@@H]21 [9-(2,3-Anhydro-β-D-lyxofuranosyl)adenin]",Auftreten der virusinduzierten zytopathischen Effekte,Visna-Virus,verhindert
same,Funktion von T-Zellen,T-Zellen,nicht beeinflußt
